Each structure is given as a SMILES string.

Data set [1] relates to advanced pancreatic cancer. The conditions noted are these: historical controls; cited from earlier work.
In data set [2] the test system is IBS patients. Briefly: Open-label study of PTI-901 in 42 IBS patients. The format is in vivo, human. Here is the method:
Forty-two IBS patients participated in an open-label study. Participants received 0.5 mg PTI-901/day for 4 weeks and were evaluated during baseline, during treatment, and at 4-week follow-up. Patients recorded degree of abdominal pain, stool urgency, consistency, and frequency. Primary outcomes were number of pain-free days and overall symptom relief, evaluated by a global assessment score. Data were analyzed per protocol. Global assessment improved in 76% of 42 patients. During treatment, the mean weekly number of pain-free days increased from 0.5+/−1 to 1.25+/−2.14 (P=0.011).

For `Nc1ccn([C@@H]2O[C@H](CO)[C@@H](O)C2(F)F)c(=O)n1` [gemcitabine], the Clinical benefit response in data set [1] was 23.8%.
For `Cl.O=C1CC[C@@]2(O)[C@H]3Cc4ccc(O)c5c4[C@@]2(CCN3CC2CC2)[C@H]1O5` [PTI-901], in data set [2] (0.5 mg/day for 4 weeks, of 42 patients), the Global assessment improved is listed as 76%. The “mean weekly number of pain-free days” value in data set [2] (during treatment, from 0.5+/−1, P=0.011) was 1.25+/−2.14. Also, the adverse reactions entry in data set [2] (human, in vivo) is “no significant adverse reactions”.
As for `O=c1[nH]cc(F)c(=O)[nH]1` [5-fluorouracil (5-FU), 5-fluorouracil], in data set [1], the Clinical benefit response is on record as 4.8%.
